We go through 19 compounds from patent US20170327471A1, “Aryl sulphide and aryl sulphoxide derivatives having C-C-attached uracils as pesticides” (BAYER CROPSCIENCE AKTIENGESELLSCHAFT, priority 2014, published 2017).

A short description of data set [1]: logP by reversed-phase HPLC (EEC Directive 79/831 Annex V.A8). It counts as physicochemical. The note with it: for chromatographic logP: reversed-phase C18 HPLC column. The protocol:
The logP values were determined in accordance with EEC Directive 79/831 Annex V.A8 by HPLC (High Performance Liquid Chromatography) using reversed-phase columns (C 18) by the following methods:
^[a] The LC-MS determination in the acidic range was effected at pH 2.7 with 0.1% aqueous formic acid and acetonitrile (contains 0.1% formic acid) as eluents; linear gradient from 10% acetonitrile to 95% acetonitrile. Called logP (HCOOH) in the table.
^[b] LC-MS determination in the neutral range was effected at pH 7.8 with 0.001 molar aqueous ammonium hydrogencarbonate solution and acetonitrile as eluents; linear gradient from 10% acetonitrile to 95% acetonitrile. Called logP (neutral) in the table.
Calibration was effected with unbranched alkan-2-ones (having 3 to 16 carbon atoms) with known logP values (logP values determined on the basis of the retention times by linear interpolation between two successive alkanones).

Another data set has as its system Boophilus microplus. The experiment in a line: Boophilus microplus injection test. The format is in vivo. Conditions: application rate, injection into engorged adult female cattle ticks, after 7 days. The protocol: 1. Boophilus microplus—Injection Test Solvent: dimethyl sulphoxide
To produce a suitable preparation of active compound, 10 mg of active compound are mixed with 0.5 ml of solvent and the concentrate is diluted with solvent to the desired concentration.
1 μl of the active compound solution is injected into the abdomen of 5 engorged adult female cattle ticks (Boophilus microplus). The animals are transferred into dishes and kept in a climate-controlled room.
Efficacy is assessed after 7 days by laying of fertile eggs. Eggs which are not visibly fertile are stored in a climate-controlled cabinet until the larvae hatch after about 42 days. An efficacy of 100% means that none of the ticks has laid any fertile eggs; 0% means that all the eggs are fertile.

The subject of the next data set is Meloidogyne incognita. The experiment in a line: Meloidogyne incognita test (sand, lettuce, solvent acetone). The format is in vivo. Conditions: application rate 20 ppm, after 14 days, lettuce in sand. Here is the method: 2. Meloidogyne incognita Test Solvent: 125.0 parts by weight of acetone To produce a suitable preparation of active compound, 1 part by weight of active compound is mixed with the stated amount of solvent and the concentrate is diluted with water to the desired concentration. Vessels are filled with sand, active compound solution, an egg/larvae suspension of the southern root-knot nematode (Meloidogyne incognita) and lettuce seeds. The lettuce seeds germinate and the plants develop. The galls develop on the roots. After 14 days, the nematicidal efficacy in % is determined by the formation of galls. 100% means that no galls were found; 0% means that the number of galls on the treated plants corresponds to the untreated control.

In another data set the test system is Phaedon cochleariae. The experiment in a line: Phaedon cochleariae spray test. The format is in vivo. Conditions: application rate 500 g/ha, after 7 days, Chinese cabbage leaf discs. The protocol: 3. Phaedon cochleariae—Spray Test Solvent: 78.0 parts by weight of acetone • • 1.5 parts by weight of dimethylformamide Emulsifier: alkylaryl polyglycol ether
(§1) To produce a suitable preparation of active compound, 1 part by weight of active compound is dissolved using the stated parts by weight of solvent and made up with water containing an emulsifier concentration of 1000 ppm until the desired concentration is attained. To produce further test concentrations, the preparation is diluted with emulsifier-containing water.
After 7 days, the efficacy in % is determined. 100% means that all the beetle larvae have been killed; 0% means that no beetle larvae have been killed.

Data set [2] concerns Tetranychus urticae. The experiment in a line: Tetranychus urticae spray test, OP-resistant (bean leaf discs). The format is in vivo. Conditions: application rate 500 g/ha, after 6 days. The protocol: 4. Tetranychus urticae—Spray Test, OP-Resistant Solvent: 78.0 parts by weight of acetone • • 1.5 parts by weight of dimethylformamide Emulsifier: alkylaryl polyglycol ether
as §1
Discs of bean leaves (Phaseolus vulgaris) infested with all stages of the greenhouse red spider mite (Tetranychus urticae) are sprayed with an active compound preparation of the desired concentration.
After 6 days, the efficacy in % is determined. 100% means that all the spider mites have been killed; 0% means that none of the spider mites have been killed.

For data set [3], the system named is Tetranychus urticae. Nature of the data set: Tetranychus urticae spray test, OP-resistant (bean plants). Conditions: application rate 20 ppm, after 7 days. The format is in vivo. Here is the method: 5. Tetranychus urticae-Spray Test, OP-Resistant Solvent: 7 parts by weight of dimethylformamide Emulsifier: alkylaryl polyglycol ether
To produce a suitable preparation of active compound, 1 part by weight of active compound is dissolved using the stated parts by weight of solvent and made up with water containing an emulsifier concentration of 1000 ppm until the desired concentration is attained. To produce further test concentrations, the preparation is diluted with emulsifier-containing water. If the addition of ammonium salts or/and penetrants is required, these are each added in a concentration of 1000 ppm to the preparation solution.
Bean plants (Phaseolus vulgaris) heavily infested by all stages of the greenhouse red spider mite (Tetranychus urticae) are sprayed with an active compound preparation of the desired concentration.
After 7 days, the efficacy in % is determined. 100% means that all the spider mites have been killed; 0% means that none of the spider mites have been killed.

Data set [4] concerns Tetranychus urticae. The experiment in a line: Tetranychus urticae drench test, OP-resistant. The note with it: application rate 4 ppm, after 14 days, bean plants in soil. The format is in vivo. The protocol: 6. Tetranychus urticae—Drench Test, OP-Resistant Solvent: 7 parts by weight of dimethylformamide Emulsifier: 2 parts by weight of alkylaryl polyglycol ether
To produce a suitable preparation of active compound, 1 part by weight of active compound is mixed with the stated amounts of solvent and emulsifier, and the concentrate is diluted with water to the desired concentration, where the volume of soil to be drenched has to be taken into account. Here, it has to be made sure that a concentration of 40 ppm of emulsifier in the soil is not exceeded. To produce further test concentrations, the mixture is diluted with water.
Bean plants (Phaseolus vulgaris) in pots filled with soil, which plants are heavily infested by all stages of the greenhouse red spider mite (Tetranychus urticae), are watered with an active compound preparation of the desired concentration.
After 14 days, the efficacy in % is assessed. 100% means that all spider mites have been killed; 0% means that none of the spider mites have been killed.

Setting [5] is: acidic range, pH 2.7, 0.1% aqueous formic acid/acetonitrile, read-out: logP (HCOOH) = logP[a].
[6] abbreviates: neutral range, pH 7.8, 0.001 molar aqueous ammonium hydrogencarbonate/acetonitrile, read-out: logP (neutral) = logP[b].
Setting [7] is: acidic range, pH 2.7, 0.1% aqueous formic acid/acetonitrile.
[8] abbreviates: neutral range, pH 7.8, 0.001 molar aqueous ammonium hydrogencarbonate/acetonitrile.

Where two headings read alike, the source gives them in different places.

With `Cc1cc(F)c(-c2cc(=O)n(C)c(=O)n2C)cc1SCC(F)(F)F` [Example I-2, 6-{2-Fluoro-4-methyl-5-[(2,2,2-trifluoroethyl)sulphanyl]phenyl}-1,3-dimethylpyrimidine-2,4(1H,3H)-dione], the values for the chromatographic logP in data set [1] (setting [5]) and in data set [1] (setting [6]) were 2.86 and 2.74, respectively. Moreover, the “efficacy (no fertile eggs laid)” value with Boophilus microplus is given as 100%. Also, in the data set on Meloidogyne incognita, the “nematicidal efficacy (formation of galls)” value turned out to be 90%. In addition, the “efficacy (beetle larvae killed)” value in the data set with Phaedon cochleariae was determined as 83%. The “efficacy (spider mites killed)” value with Tetranychus urticae [2] amounted to 100%; in the data set on Tetranychus urticae [3] it was 100%; in the data set with Tetranychus urticae [4], 99%.
Take `CCn1c(=O)c(F)c(-c2cc(SCC(F)(F)F)c(C)cc2F)n(C)c1=O` [Example I-3, 3-Ethyl-5-fluoro-6-{2-fluoro-4-methyl-5-[(2,2,2-trifluoroethyl)-sulphanyl]phenyl}-1-methylpyrimidine-2,4(1H,3H)-dione]: the chromatographic logP stood at 3.32 in data set [1] (setting [5]) and 3.42 in data set [1] (setting [6]).
Turning to `Cc1cc(C)c(-c2cc(=O)n(C)c(=O)n2C)cc1SCC(F)(F)F` [Example I-4], in data set [1] (setting [5]), the chromatographic logP was determined as 2.98.
For `CCCn1c(-c2cc(SCC(F)(F)F)c(C)cc2F)cc(=O)n(CCC)c1=O` [Example I-5], the “logP (HCOOH) = logP[a]” value in data set [1] (setting [7]) was determined as 4.26. Besides, the “logP (neutral) = logP[b]” value in data set [1] (setting [8]) is given as 4.16. For the same compound, in the data set with Tetranychus urticae [2], the “efficacy (spider mites killed)” value is 90%.
The corresponding values for `Cc1cc(F)c(-c2cc(=O)n(C(C)C)c(=O)n2C(C)C)cc1SCC(F)(F)F` [Example I-6] are 4.52, 4.42 and 100%.
Consider `CCn1c(-c2cc(SCC(F)(F)F)c(C)cc2F)cc(=O)n(CC)c1=O` [Example I-7], for which the “logP (HCOOH) = logP[a]” value in data set [1] (setting [7]) came to 3.54. In addition, the “logP (neutral) = logP[b]” value in data set [1] (setting [8]) is listed as 3.47. Also, the results for the “efficacy (spider mites killed)” value with Tetranychus urticae [2] and with Tetranychus urticae [3] were 90% and 100%, respectively.
With `CCn1c(=O)[nH]c(-c2cc(SCC(F)(F)F)c(C)cc2F)c(F)c1=O` [Example I-8], in data set [1] (setting [7]), the “logP (HCOOH) = logP[a]” value was 2.72.
For `Cc1cc(F)c(-c2cc(=O)n(C(C)C)c(=O)n2C(C)C)cc1[S+]([O-])CC(F)(F)F` (stereo not drawn) [Example I-9], the “logP (HCOOH) = logP[a]” value in data set [1] (setting [7]) came to 3.19. Also, in data set [1] (setting [8]), the “logP (neutral) = logP[b]” value amounted to 3.10. For the same compound, the “efficacy (no fertile eggs laid)” value in the data set on Boophilus microplus is 100%. The “efficacy (spider mites killed)” value with Tetranychus urticae [2] was found to be 100%.
For the compound `CCn1c(-c2cc([S+]([O-])CC(F)(F)F)c(C)cc2F)cc(=O)n(CC)c1=O` (stereo not drawn) [Example I-10], the “logP (HCOOH) = logP[a]” value in data set [1] (setting [7]) came out at 2.37. For the same compound, the “logP (neutral) = logP[b]” value in data set [1] (setting [8]) is listed as 2.28. In addition, in the data set on Boophilus microplus, the “efficacy (no fertile eggs laid)” value worked out at 100%. In addition, the “efficacy (spider mites killed)” value in the data set with Tetranychus urticae [2] came out at 100%; in the data set with Tetranychus urticae [3] it was 100%; in the data set with Tetranychus urticae [4], 95%.
As for `CCn1c(=O)c(F)c(-c2cc([S+]([O-])CC(F)(F)F)c(C)cc2F)n(C)c1=O` (stereo not drawn) [Example I-11], the “logP (HCOOH) = logP[a]” value in data set [1] (setting [7]) is on record as 2.20. Besides, the “logP (neutral) = logP[b]” value in data set [1] (setting [8]) was found to be 2.19. In addition, the “efficacy (no fertile eggs laid)” value in the data set with Boophilus microplus was found to be 100%. Further, the “efficacy (spider mites killed)” value in the data set on Tetranychus urticae [2] is reported as 100%.
As for `Cc1cc(C)c([S+]([O-])CC(F)(F)F)cc1-c1cc(=O)n(C)c(=O)n1C` (stereo not drawn) [Example I-12], the “logP (HCOOH) = logP[a]” value in data set [1] (setting [7]) was found to be 1.89. In data set [1] (setting [8]), the “logP (neutral) = logP[b]” value is reported as 1.82. In addition, the “efficacy (no fertile eggs laid)” value in the data set on Boophilus microplus came out at 100%. Moreover, the “efficacy (spider mites killed)” value in the data set with Tetranychus urticae [2] stood at 100%.
For the compound `Cc1cc(F)c(-c2cc(=O)n(C)c(=O)[nH]2)cc1SCC(F)(F)F` [Example I-13, 6-{2-Fluoro-4-methyl-5-[(2,2,2-trifluoroethyl)sulphanyl]phenyl}-3-methylpyrimidine-2,4(1H,3H)-dione], the chromatographic logP in data set [1] (setting [5]) is 2.38; in data set [1] (setting [6]) it was 2.25.
Regarding `Cc1cc(F)c(-c2cc(=O)[nH]c(=S)[nH]2)cc1SCC(F)(F)F` [Example I-14, 6-{2-Fluoro-4-methyl-5-[(2,2,2-trifluoroethyl)sulphanyl]phenyl}-2-thioxo-2,3-dihydropyrimidin-4(1H)-one], the chromatographic logP worked out at 2.34 in data set [1] (setting [5]) and 1.54 in data set [1] (setting [6]).
In the case of `Cc1cc(F)c(-c2cc(=O)n(CC(F)(F)F)c(=S)n2C)cc1SCC(F)(F)F` [Example I-15], the “logP (HCOOH) = logP[a]” value in data set [1] (setting [7]) is reported as 4.34. Moreover, in the data set with Phaedon cochleariae, the “efficacy (beetle larvae killed)” value is recorded as 100%. For the same compound, the entries for the “efficacy (spider mites killed)” value in the data set on Tetranychus urticae [2], in the data set on Tetranychus urticae [3] and in the data set on Tetranychus urticae [4] were 90%, 100% and 100%, respectively.
`Cc1cc(F)c(-c2c(Cl)c(=O)n(C)c(=O)n2C)cc1SCC(F)(F)F` [Example I-16, 5-Chloro-6-{2-fluoro-4-methyl-5-[(2,2,2-trifluoroethyl)sulphanyl]phenyl}-1,3-dimethylpyrimidine-2,4(1H,3H)-dione]: the chromatographic logP in data set [1] (setting [5]) was found to be 3.15. The “efficacy (spider mites killed)” value with Tetranychus urticae [2] is on record as 90%.
For the compound `Cc1cc(F)c(-c2cc(=O)n(C)c(=O)[nH]2)cc1[S+]([O-])CC(F)(F)F` (stereo not drawn) [Example I-17], the “logP (HCOOH) = logP[a]” value in data set [1] (setting [7]) is reported as 1.41. Also, the “logP (neutral) = logP[b]” value in data set [1] (setting [8]) turned out to be 1.43.
With `CCn1c(=O)c(F)c(Cl)n(C)c1=O` [II-01, 6-chloro-3-ethyl-5-fluoro-1-methylpyrimidine-2,4(1H,3H)-dione], the chromatographic logP in data set [1] (setting [5]) came to 1.31.
Turning to `CCn1c(=O)c(C)c(Cl)n(C)c1=O` [II-02, 6-chloro-3-ethyl-1,5-dimethylpyrimidine-2,4(1H,3H)-dione], the chromatographic logP in data set [1] (setting [5]) is 1.59.
For `CCOC(=O)CC(=O)c1cc(SCC(F)(F)F)c(C)cc1F` [VI-01, ethyl 3-{2-fluoro-4-methyl-5-[(2,2,2-trifluoroethyl)sulphanyl]phenyl}-3-oxopropanoate], the chromatographic logP in data set [1] (setting [5]) was determined as 3.57; in data set [1] (setting [6]) it was 3.59.
